Measurements taken from patent US9494576B2, “Methods for detecting contaminants in solutions containing glucose polymers” (ROQUETTE FRERES, priority 2011, dated 2016).
Where two headings read alike, the source gives them in different places.

What was measured:
[1] = system: THP-1 cells; assay: Production of RANTES by differentiated (MDP-sensitized) THP-1 cells, ELISA; type: cell-based; details: for synergistic effect on the production of RANTES: sensitizer added to PGN/LPS: MDP 10 μg/ml, f-MLP 1, 10, 100 nM, LPS 25 pg/ml; for EC50 / Detection threshold: RANTES; for EC50 / Detection threshold / Sensitivity: without MDP; for Sensitivity: per g of polymer at 25 mg/ml
Method: (§1) The THP-1 cells (88081201, ECACC) are cultured routinely in the laboratory.
(§2) For the pro-inflammatory activation experiments, the THP-1 cells are differentiated for 3 days in the presence of phorbol ester (PMA). In particular, the cells are placed in culture in 200 μl of complete medium in the presence of 20 nM of PMA for 72 h (final cell density: 0.75×10^6 cells/ml).
(§3) The differentiated THP-1 cells (0.75×10^6 cells/ml) are placed in culture in 200 μl of complete medium, and then incubated in the presence of the various test samples.
(§4) Each analysis is carried out in triplicate.
(§5) The cell supernatants are collected in order to assay the secreted cytokines after 8 h of stimulation for TNF-α, and 20 h for RANTES.
(§6) The ELISA assays are carried out according to the indications given by the supplier.
The following experimental conditions are selected: • final concentration of differentiated THP-1 cells: 0.75×10^6 cells/ml, […], • final glucose polymer concentration: 25 mg/ml, • response: ELISA assay of the production of RANTES after 20 h of stimulation.

[2] = system: THP-1 cells; type: cell-based
Method: as §1, §2, §3, §4, §5, §6

[3] = target: NOD2 (Homo sapiens, UniProt Q9HC29); assay: SEAP production by HEK-BLUE hNOD2 line (HEK-NOD2); type: cell-based
From the text: (§7) The HEK-BLUE cell lines (InvivoGen) are lines modified by stable transfection with vectors encoding innate immunity receptors. These cells are also cotransfected with a reporter gene which produces a secreted form of alkaline phosphatase (SEAP: secreted embryonic alkaline phosphatase), the synthesis of which is under the direct control of the signaling pathway associated with the receptor(s) expressed in the same cell line.
(§8) This line, which naturally expresses virtually all the innate immunity receptors, is used as a positive control in the tests.
(§9) The RAW-BLUE and HEK-BLUE cells are cultured according to the supplier's recommendations. In particular, the selection pressure for the plasmids encoding the inflammatory molecule receptors (TLR2 or NOD2) and encoding the SEAP is provided by adding, to the culture medium, the HEK-BLUE Selection/blasticidin antibiotics. At 75% confluence, the cells are resuspended at a cell density of 0.28×10^6 cells/ml. Before stimulation, 180 μl of the cell suspension are distributed into the culture wells (96-well plate), i.e. 50 000 cells/well. The cells are then stimulated for 24 h by adding 20 μl of the test samples (in ten-times concentrated form). The stimulation lasts from 16 to 24 h.
(§10) The production of SEAP in response to the contaminated molecules is estimated by measuring the phosphatase activity according to the protocol supplied by the manufacturer: 20 μl of culture supernatant are diluted in 180 μl of QUANTI-BLUE. The color develops at 37° C. and the reading is carried out, at various times, at 620 nm. The data are expressed as absorbance after subtraction of the background noise, obtained by adding the same volume of nonconditioned culture medium to the reaction medium of the enzyme.
In the new procedure referred to as without subculturing, the HEK-NOD2 cells are conditioned in wells (10 000/well) and cultured for three days. Before stimulation, the culture medium is removed and replaced with a medium containing 1% of FCS and the solutions to be assayed. In this case, the SEAP response is 5-6 times greater than the negative control, which is compatible with a test for detecting MDP in contaminated solutions (FIG. 12).
(§11) The following experimental conditions were selected: • final glucose polymer concentration: 37.5 mg/ml for the HEK-BLUE-cells, and 50 mg/ml for the RAW-BLUE cells, • enzymatic reaction: 50 μl of conditioned medium+150 μl of SEAP reagent, • minimum reaction time: 60 min.

[4] = system: HEK-BLUE Null2 line; assay: SEAP production by HEK-BLUE Null2 control line (HEK-Null); type: cell-based
Method: as §8, §9, §10

[5] = target: T1, TLR2 (Homo sapiens, UniProt O60603); assay: SEAP production by HEK-BLUE hTLR2 line (HEK-TLR2); type: cell-based
Method: as §7, with “line. […]” for “line.”
as §9, §10, §11

[6] = system: RAW-BLUE cells; assay: SEAP production by RAW-BLUE line; type: cell-based, mouse; details: for Detection threshold / EC50: RAW-BLUE line; for Sensitivity: per g of polymer at 50 mg/ml
Method: as §8, §9, §10, §11

[7] = target: T1, TLR2; assay: Peptidoglycan assay method with HEK-BLUE hTLR2 cells, with or without mutanolysin treatment; type: cell-based
Method: The assay is based on the specific recognition of PGNs by a line expressing the TLR2 receptor and on the production of an enzymatic activity that is measurable via the activation of the signaling pathway associated with TLR2.
The dose-response curve was produced with standard S. aureus PGN (FIG. 21).
The HEK-BLUE cells are incubated with increasing concentrations of standard, and the cell response is measured by quantifying the enzymatic activity produced.
The result is a conventional sigmoid cell response curve: • part (A) corresponds to the responses obtained with low concentrations of PGN, below those which give effective activation of TLR2. This nonlinear zone therefore corresponds to the threshold limit of detection of the method. In such a way as to include the variability of the method, this detection threshold is estimated at three times the value of the background noise (response obtained in the absence of stimulus). • part (B) is the most interesting since a linear response is observed. This effective-response zone makes it possible to determine a direct relationship between the cell response and the level of PGN. It is therefore the assaying zone; • part (C) corresponds to a saturation of the cell response in the presence of PGN concentrations which are too high. […]
The PGN assays are carried out on glucose polymer solutions. The sample requiring the PGN quantification is incubated with HEK-BLUE hTLR2 cells, and the cell response is measured by quantifying the enzymatic activity produced. The amount of PGN contained in the sample can be determined by referring to the dose-response curves. […]
The samples were treated in the presence of 2500 U/ml of mutanolysin for 16 h at 37° C., and then added to the HEK-TLR2 cells. The cell response was measured by following the activity of the SEAP produced, according to the conditions described in example 3. […]
The absorbance values were reported on the calibration curves established under the same conditions with the standard PGN (FIG. 23), so as to determine the PGN concentrations present in the glucose polymers.

[8] = system: mononuclear cells; details: background statement, cited from earlier work
[9] = test of resumption of growth, FIG. 8, supplier's culture procedure

T1 sequence (O60603 21-784): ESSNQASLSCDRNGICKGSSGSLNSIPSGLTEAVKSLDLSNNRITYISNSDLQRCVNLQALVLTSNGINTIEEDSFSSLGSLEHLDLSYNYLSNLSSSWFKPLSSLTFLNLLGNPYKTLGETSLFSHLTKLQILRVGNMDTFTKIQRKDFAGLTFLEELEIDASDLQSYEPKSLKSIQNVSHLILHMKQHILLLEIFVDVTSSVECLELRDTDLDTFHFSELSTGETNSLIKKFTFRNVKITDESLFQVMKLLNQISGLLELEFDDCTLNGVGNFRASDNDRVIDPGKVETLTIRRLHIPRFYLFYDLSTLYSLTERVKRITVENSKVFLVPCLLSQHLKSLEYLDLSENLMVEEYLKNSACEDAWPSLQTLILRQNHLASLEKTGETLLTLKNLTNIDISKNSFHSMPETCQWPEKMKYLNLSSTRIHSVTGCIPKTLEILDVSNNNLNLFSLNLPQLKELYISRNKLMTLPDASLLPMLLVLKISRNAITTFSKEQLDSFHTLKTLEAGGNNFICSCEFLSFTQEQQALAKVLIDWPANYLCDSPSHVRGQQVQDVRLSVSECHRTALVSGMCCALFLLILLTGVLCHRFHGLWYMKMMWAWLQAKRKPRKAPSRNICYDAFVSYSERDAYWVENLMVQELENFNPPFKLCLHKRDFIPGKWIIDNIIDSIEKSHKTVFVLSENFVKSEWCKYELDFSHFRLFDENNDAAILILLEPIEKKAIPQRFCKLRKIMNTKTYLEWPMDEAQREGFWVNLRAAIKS
NOD2, sequence (Q9HC29 whole entry): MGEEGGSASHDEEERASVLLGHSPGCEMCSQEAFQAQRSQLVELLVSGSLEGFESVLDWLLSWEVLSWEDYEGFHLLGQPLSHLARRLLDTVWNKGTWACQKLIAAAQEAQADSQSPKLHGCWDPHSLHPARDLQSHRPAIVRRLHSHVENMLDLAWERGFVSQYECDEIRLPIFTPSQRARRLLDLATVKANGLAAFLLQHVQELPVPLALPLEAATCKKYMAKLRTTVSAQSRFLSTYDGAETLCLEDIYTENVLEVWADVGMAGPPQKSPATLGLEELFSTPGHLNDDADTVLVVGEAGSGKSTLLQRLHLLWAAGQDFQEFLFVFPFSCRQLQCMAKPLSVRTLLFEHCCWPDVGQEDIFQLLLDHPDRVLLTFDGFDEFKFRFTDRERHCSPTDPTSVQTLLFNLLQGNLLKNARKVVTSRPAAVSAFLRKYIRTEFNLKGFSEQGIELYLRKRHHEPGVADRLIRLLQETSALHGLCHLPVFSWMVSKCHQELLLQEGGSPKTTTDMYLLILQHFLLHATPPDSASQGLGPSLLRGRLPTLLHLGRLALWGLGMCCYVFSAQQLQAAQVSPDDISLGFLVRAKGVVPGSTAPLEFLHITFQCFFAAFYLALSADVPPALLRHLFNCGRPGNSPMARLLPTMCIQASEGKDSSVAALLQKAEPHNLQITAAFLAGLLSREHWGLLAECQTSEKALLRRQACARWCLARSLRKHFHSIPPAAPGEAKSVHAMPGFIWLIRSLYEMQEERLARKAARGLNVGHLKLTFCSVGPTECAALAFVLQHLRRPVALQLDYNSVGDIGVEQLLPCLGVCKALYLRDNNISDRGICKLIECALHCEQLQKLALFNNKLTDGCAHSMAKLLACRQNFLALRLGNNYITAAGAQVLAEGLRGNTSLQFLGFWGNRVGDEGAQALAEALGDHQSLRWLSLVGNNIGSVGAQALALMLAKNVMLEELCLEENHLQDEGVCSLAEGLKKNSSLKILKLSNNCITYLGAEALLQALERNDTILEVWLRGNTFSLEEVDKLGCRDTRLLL

Molecule: CC(=O)N[C@H]1C(O)O[C@H](CO)[C@@H](O)[C@@H]1O[C@H](C)C(=O)N[C@@H](C)C(=O)N[C@H](CCC(=O)O)C(N)=O (mixture of isomers) [MDP, muramyl dipeptide]
- increase of the sensitivity of the THP-1 cells to LPS and PGN (factor) ([1]; MDP 10 μg/ml): 5
- synergistic effect on the production of RANTES and of TNF-α in response to PGN and LPS ([1]; minimum dose 1 μg/ml): does not induce a significant synergistic effect
- synergistic effect on the production of RANTES [1]: clearly show a synergistic effect
- synergistic effect on the production of TNF-α [2]: not very marked
- Detection threshold ([3]; HEK-NOD2 line): 1.5 ± 0.5 ng/mL
- EC50 ([3]; HEK-NOD2 line): 0.012 ± 0.006 µg/mL
- Sensitivity ([3]; per g of polymer at 37.5 mg/ml): 40 ± 13 ng/g
- SEAP response relative to the negative control ([3]; procedure without subculturing, 10 000 cells/well, FIG. 12): 5-6 times
- SEAP response of HEK-NOD2 cells ([3]; selected conditions, FIG. 16): respond effectively
- SEAP response of HEK-NOD2 cells [3, 9]: responds only very weakly
- SEAP response of HEK-Null cells [4]: insensitive

Molecule: peptidoglycans [PGN]
- EC50 [1]: 1.2 ± 0.7 µg/mL
- Detection threshold ([1]; response > 3 x SD of background noise): 14.5 ± 8.5 ng/mL
- Sensitivity [1]: 580 ± 340 ng/g
- PGN levels detected by the HEK-TLR2 line [5]: below 2 ng/g of glucose polymer
- SEAP response of HEK-TLR2 cells to inflammatory molecules [5]: responds effectively
- reduction of reactivity for the HEK-TLR2 cells after passing through a 0.22 μm filter [5]: approximately 50%
- sensitivity threshold relative to the sensitized THP-1 cells [5]: 50 times
- Detection threshold ([5]; HEK-TLR2 line): 0.07 ± 0.04 ng/mL
- EC50 ([5]; HEK-TLR2 line): 0.0031 ± 0.0025 µg/mL
- SEAP response of HEK-TLR2 cells to inflammatory molecules ([5]; listed as PUN): respond very effectively
- Sensitivity ([5]; per g of polymer at 37.5 mg/ml): 1.9 ± 1.1 ng/g
- SEAP response of RAW-BLUE cells to inflammatory molecules [6]: respond well
- Detection threshold [6]: 2.1 ± 1.5 ng/mL
- EC50 [6]: 0.21 ± 0.075 µg/mL
- Sensitivity [6]: 42 ± 30 ng/g
- SEAP response of HEK-Null cells [4]: insensitive
- reduction of the response of the HEK-TLR2 cells by mutanolysin treatment ([7]; 2500 U/ml, 16 h, 37° C., absence of glucose polymer): more than 50%
- response of the HEK-TLR2 cells after mutanolysin treatment ([7]; in the presence of 7.5% of polymer): improved
- response of the HEK-TLR2 cells after mutanolysin treatment ([7]; in the presence of 37.5% of polymer): unchanged
- concentration required for a similar response, relative to LPS ([8]; w/w ratio): at least 100 times

Molecule: lipoteichoic acid [LTA]
- SEAP response of HEK-TLR2 cells to inflammatory molecules [5]: weaker

Molecule: Lipopolysaccharides [LPS]
- Detection threshold [1]: 0.01 ± 0.007 ng/mL
- EC50 [1]: 0.0009 ± 0.0001 µg/mL
- Sensitivity [1]: 0.4 ± 0.28 ng/g
- synergistic effect on the production of RANTES [1]: synergistic effect of the two agonists is visible
- synergistic effect on the production of TNF-α ([2]; sensitizer added to PGN/LPS: MDP 10 μg/ml, LPS 25 pg/ml): synergistic effect of the two agonists is visible
- SEAP response of RAW-BLUE cells to inflammatory molecules [6]: weak
- detection threshold relative to that of the sensitized THP-1 cells [6]: approximately 50 times
- Detection threshold [6]: 0.24 ± 0.06 ng/mL
- EC50 [6]: >0.01 µg/mL
- Sensitivity [6]: 4.8 ± 1.2 ng/g
- concentration inducing a significant response [8]: about 1 ng/ml

Molecule: formyl-Met-Leu-Phe tripeptide [f-MLP]
- synergistic effect on the production of RANTES [1]: no synergistic effect was observed

Molecule: Tumor Necrosis Factor alpha [TNF-α]
- SEAP response of HEK-TLR2 cells to inflammatory molecules [5]: respond
- SEAP response of HEK-NOD2 cells [3, 9]: responds only very weakly
- SEAP response of HEK-Null cells [4]: respond
